This is an account of results in PubChem BioAssay AID1259407 (Chemical Carcinogenesis Research Information System (CCRIS), 2018).

This data set has as its system CCRIS mutagenicity, Ames/micronucleus/aberration tests. Put plainly: CCRIS mutagenicity studies.
Where [1] appears, read: Test System: AMES SALMONELLA TYPHIMURIUM, Strain/Indicator: TA98, Metabolic Activation: NONE, Method: PREINCUBATION
Where [2] appears, read: Test System: AMES SALMONELLA TYPHIMURIUM, Strain/Indicator: TA100, Metabolic Activation: NONE, Method: PREINCUBATION

Active and inactive are the calls of the source. No rule for the calls is given here.

Take `O=S(O)S(=O)O`: the mutagenic call is “inactive; negative” (Test System: AMES SALMONELLA TYPHIMURIUM, Strain/Indicator: TA97, Metabolic Activation: NONE, Method: PREINCUBATION); “inactive; negative” (Test System: AMES SALMONELLA TYPHIMURIUM, Strain/Indicator: TA97, Metabolic Activation: RAT, LIVER, S-9, AROCLOR 1254, Method: PREINCUBATION); “inactive; negative” under setting [1]; “inactive; negative” (Test System: AMES SALMONELLA TYPHIMURIUM, Strain/Indicator: TA98, Metabolic Activation: RAT LIVER S-9, PHENOBARBITAL AND BETA-NAPHTHOFLAVONE, Method: PREINCUBATION); “inactive; negative” (Test System: AMES SALMONELLA TYPHIMURIUM, Strain/Indicator: TA98, Metabolic Activation: RAT, LIVER, S-9, KC 500, Method: PREINCUBATION); “inactive; negative” under setting [2]. In addition, the mutagenic call reads like this: (Test System: AMES SALMONELLA TYPHIMURIUM, Strain/Indicator: TA100, Metabolic Activation: RAT LIVER S-9, PHENOBARBITAL AND BETA-NAPHTHOFLAVONE, Method: PREINCUBATION) “inactive; negative”; (Test System: AMES SALMONELLA TYPHIMURIUM, Strain/Indicator: TA100, Metabolic Activation: RAT, LIVER, S-9, KC 500, Method: PREINCUBATION) “inactive; negative”; (Test System: AMES SALMONELLA TYPHIMURIUM, Strain/Indicator: TA102, Metabolic Activation: NONE, Method: PREINCUBATION) “inactive; negative”; (Test System: AMES SALMONELLA TYPHIMURIUM, Strain/Indicator: TA102, Metabolic Activation: RAT, LIVER, S-9, AROCLOR 1254, Method: PREINCUBATION) “inactive; negative”; (Test System: AMES SALMONELLA TYPHIMURIUM, Strain/Indicator: TA1535, Metabolic Activation: NONE, Method: PREINCUBATION) “inactive; negative”; (Test System: AMES SALMONELLA TYPHIMURIUM, Strain/Indicator: TA1535, Metabolic Activation: RAT LIVER S-9, PHENOBARBITAL AND BETA-NAPHTHOFLAVONE, Method: PREINCUBATION) “inactive; negative”. The mutagenic call was “inactive; negative” (Test System: AMES SALMONELLA TYPHIMURIUM, Strain/Indicator: TA1535, Metabolic Activation: RAT, LIVER, S-9, KC 500, Method: PREINCUBATION); “inactive; negative” (Test System: AMES SALMONELLA TYPHIMURIUM, Strain/Indicator: TA1537, Metabolic Activation: NONE, Method: PREINCUBATION); “inactive; negative” (Test System: AMES SALMONELLA TYPHIMURIUM, Strain/Indicator: TA1537, Metabolic Activation: RAT LIVER S-9, PHENOBARBITAL AND BETA-NAPHTHOFLAVONE, Method: PREINCUBATION); “inactive; negative” (Test System: AMES SALMONELLA TYPHIMURIUM, Strain/Indicator: TA1537, Metabolic Activation: RAT, LIVER, S-9, KC 500, Method: PREINCUBATION); “inactive; negative” (Test System: AMES SALMONELLA TYPHIMURIUM, Strain/Indicator: TA1538, Metabolic Activation: NONE, Method: PREINCUBATION); “inactive; negative” (Test System: AMES SALMONELLA TYPHIMURIUM, Strain/Indicator: TA1538, Metabolic Activation: RAT LIVER S-9, PHENOBARBITAL AND BETA-NAPHTHOFLAVONE, Method: PREINCUBATION). Moreover, the mutagenic call (Test System: AMES SALMONELLA TYPHIMURIUM, Strain/Indicator: TA1538, Metabolic Activation: RAT, LIVER, S-9, KC 500, Method: PREINCUBATION) was “inactive; negative”; the mutagenic call (Test System: E. COLI, Strain/Indicator: WP2 UVRA, Metabolic Activation: NONE, Method: PREINCUBATION) was “inactive; negative”; the mutagenic call (Test System: E. COLI, Strain/Indicator: WP2UVRA, Metabolic Activation: NONE, Method: PREINCUBATION) was “inactive; negative”; the mutagenic call (Test System: E. COLI, Strain/Indicator: WP2UVRA, Metabolic Activation: RAT LIVER S-9, PHENOBARBITAL AND BETA-NAPHTHOFLAVONE, Method: PREINCUBATION) was “inactive; negative”; the mutagenic call (Test System: E. COLI, Strain/Indicator: WP2 UVRA, Metabolic Activation: RAT, LIVER, S-9, KC 500, Method: PREINCUBATION) was “inactive; negative”.

Take `CCCC(=O)OCc1ccc([N+](=O)[O-])cc1`: the mutagenic call is “inactive; negative” under setting [1]; “inactive; negative” (Test System: AMES SALMONELLA TYPHIMURIUM, Strain/Indicator: TA100(NR), Metabolic Activation: NONE, Method: PREINCUBATION); “active; positive” under setting [2]; “active; positive” (Test System: AMES SALMONELLA TYPHIMURIUM, Strain/Indicator: TA100, Metabolic Activation: RAT, LIVER, S-9, AROCLOR 1254, Method: PREINCUBATION).

Turning to `Cc1ccc(/C(C#N)=C\C=C\c2ccccc2[N+](=O)[O-])cc1`, where the note is “Test System: AMES SALMONELLA TYPHIMURIUM, Strain/Indicator: TA97A, Metabolic Activation: NONE, Method: STANDARD PLATE”, the mutagenic call was “active; positive”.

Take `CCOC(=O)C(=NNc1ccc(-c2ccc(NN=C(C(=O)OCC)C(=O)OCC)cc2)cc1)C(=O)OCC`: under “Test System: AMES SALMONELLA TYPHIMURIUM, Strain/Indicator: TA98, Metabolic Activation: HAMSTER, LIVER, S-9, Method: PREINCUBATION (PRIVAL METHOD)”, the mutagenic call is “inactive; negative”.

As to `O=C(O)c1ccc(/C=C/c2ccc([N+](=O)[O-])o2)cc1`, the mutagenic call by setting is: under setting [1], “active; positive”; (Test System: AMES SALMONELLA TYPHIMURIUM, Strain/Indicator: TA98, Metabolic Activation: RAT, LIVER, S-9, PCB, Method: PREINCUBATION) “active; positive”; under setting [2], “active; positive”; (Test System: AMES SALMONELLA TYPHIMURIUM, Strain/Indicator: TA100, Metabolic Activation: RAT, LIVER, S-9, PCB, Method: PREINCUBATION) “active; positive”.

As for `CCCCCCCCCCCC[N+](C)(C)COCCCCCCCCC`, the mutagenic call is, setting by setting: (Test System: BACILLUS SUBTILIS, Strain/Indicator: H17/REC, Metabolic Activation: NONE, Method: STANDARD PLATE) “inactive; negative”; (Test System: BACILLUS SUBTILIS, Strain/Indicator: M45, Metabolic Activation: NONE, Method: STANDARD PLATE) “inactive; negative”.

On to `CCN(CCC#N)c1cc(NC(C)=O)c(-n2nc3c(Br)cc(N)c(Cl)c3n2)cc1OC`, for which the mutagenic call is, setting by setting: (Test System: AMES SALMONELLA TYPHIMURIUM, Strain/Indicator: TA98, Metabolic Activation: RAT LIVER S-9, AROCLOR 1254, Method: STANDARD PLATE) “active; positive”; (Test System: AMES SALMONELLA TYPHIMURIUM, Strain/Indicator: TA100, Metabolic Activation: RAT LIVER S-9, AROCLOR 1254, Method: STANDARD PLATE) “active; positive”; (Test System: AMES SALMONELLA TYPHIMURIUM, Strain/Indicator: TA104, Metabolic Activation: RAT LIVER S-9, AROCLOR 1254, Method: STANDARD PLATE) “active; positive”; (Test System: AMES SALMONELLA TYPHIMURIUM, Strain/Indicator: YG1024, Metabolic Activation: RAT LIVER S-9, PHENOBARBITAL, 5,6-BENZOFLAVONE (10%), Method: PREINCUBATION) “active; positive”.
